We go through 4 compounds from patent US6194176A, “Recombinant expression of proteins from secretory cell lines” (priority 1997, dated 2001).

Like-named read-outs stand apart in the source and are kept apart here.

One test has as its system RIN 1046-38 cells. In words: Insulin secretion in static incubation, glucose dose response with or without 5-thioglucose. Type of test: cell-based. Particulars: Rattus norvegicus; 2 mM 5-thioglucose, 0.25 mM glucose + 100 μM IBMX, 2 h; read-out: reduction in insulin secretion. As to the method:
(§1) Cells were plated in 12-well dishes (Corning Glass Works, Corning, N.Y.) at a density of approximately 250,000 cells per well and allowed to grow for 48 hours. Cells were washed twice for 20 minutes each in HEPES/bicarbonate buffered salt solution (HBBSS; 114 mM NaCl, 4.7 mM KCl, 1.21 mM KH2 PO4, 1.16 mM MgSO4, 25.5 mM NaHCO3, 2.5 mM CaCl2, 10 mM Hepes) with 0.1% bovine serum albumin but without glucose. Secretion studies were then conducted by incubating cells in HBBSS containing 0.5% BSA and with glucose in a range of concentrations from 0 to 20 mM for two hours. These experiments were conducted in the presence and absence of 2 mM 5-thioglucose (Sigma, St. Louis, Mo.) and in the presence or absence of 100 μM isobutylmethylxanthine (IBMX). Following incubation, media was collected and assayed for insulin by radioimmunoassay with the DPC method, as described above. Secretion was normalized for cell number by measuring total protein in each well by the method of Bradford (1976), using the kit from Bio-Rad, Hercules, Calif.

Another test concerns EP 40/110 cells. Described as above. As to conditions: 2 mM 5-thioglucose, + IBMX, 2 h. The test is classed as cell-based, rat. The procedure:
as §1

A further test relates to R5C.I-17 cells. Described as above. Type of test: cell-based, rat. As to the method: as §1
A further test concerns EP 49/206 cells. The description is as above. Type of test: cell-based, rat. Particulars: 2 mM 5-thioglucose, + IBMX, 2 h. As to the method: as §1
Another test concerns Glucokinase (GK). Particulars: cited from earlier work.
Test [1] deals with Hexokinases I-III (HK1-111), low Km hexokinases. Particulars: HK1-111, Table 1, cited from earlier work.

As for `O=C[C@H](O)[C@@H](O)[C@H](O)[C@H](S)CO` [5-thioglucose], the inhibition at 2000 µM in the test with RIN 1046-38 cells was 50%; in the test with EP 40/110 cells (Rattus norvegicus, read-out: reduction of insulin secretion response to 0.5 mM glucose), 70%; in the test on R5C.I-17 cells (Rattus norvegicus, 2 mM 5-thioglucose, no secretagogues or IBMX alone, 2 h, read-out: suppression of basal insulin secretion) it was ~50%. Further, in the test with EP 40/110 cells, the “effect on insulin secretion response to 0.25 mM glucose” value is “completely eliminated”. The “maximal fold-response of insulin secretion” value with R5C.I-17 cells (2 mM 5-thioglucose present, seen at 1 mM glucose + IBMX (5.7-fold without 5-thioglucose)) was found to be 3.9 fold. For the same compound, in the test with EP 49/206 cells, the “effect on insulin secretion response to 0.05 and 0.25 mM glucose” value is reported as “completely eliminated”.
For the compound `Nc1ncnc2c1ncn2[C@@H]1O[C@H](COP(=O)(O)OP(=O)(O)OP(=O)(O)O)[C@@H](O)[C@H]1O` [ATP], the Km (usually the substrate concentration at which the rate is half of its maximum) in the test on Glucokinase (GK) (GK of Table 1, read-out: Km ATP) was 500 µM; in test [1] (read-out: Km ATP), 200 to 500 µM.
In the case of `O=P(O)(O)OC[C@H]1OC(O)[C@H](O)[C@@H](O)[C@@H]1O` (some centres unmarked) [G-6-P, glucose-6-phosphate], the inhibition constant (Ki) (usually the equilibrium dissociation constant of an inhibitor or competing ligand from its target) at Glucokinase (GK) (GK of Table 1, read-out: Ki G-6-P) is 60 mM; in test [1] (read-out: Ki G-6-P), 0.2 to 0.9 mM. The “glucose-6-phosphate concentration required for appreciable inhibition” value in the test with Glucokinase (GK) is reported as > 10 mM.
Regarding `OC[C@H]1OC(O)[C@H](O)[C@@H](O)[C@@H]1O` (some centres unmarked) [glucose], the Km was 5000 to 12000 µM in the test on Glucokinase (GK) (GK of Table 1, read-out: Km glucose); 6000 to 8000 µM in the test with Glucokinase (GK) (approximate, read-out: Km for glucose); 20 to 130 µM in test [1] (read-out: Km glucose).
